Common to all, as to format: functional
In assay [1] the test system is Escherichia coli. In words: Antimicrobial activity against Escherichia coli isolate 17 expressing aac(6')-Ib-cr gene.
Assay [2] deals with Escherichia coli. The assay can be described thus: Antimicrobial activity against azide-resistant Escherichia coli J53.
Assay [3] has as its system Enterobacter cloacae. In words: Antimicrobial activity against Enterobacter cloacae isolate 153 transconjugant expressing aac(6')-Ib-cr gene.
The test system of assay [4] is Enterobacter cloacae. The assay can be described thus: Antimicrobial activity against Enterobacter cloacae isolate 37 expressing aac(6')-Ib-cr gene.
The subject of assay [5] is Klebsiella pneumoniae. In words: Antimicrobial activity against Klebsiella pneumoniae isolate 202 transconjugant expressing aac(6')-Ib-cr gene.
The test system of assay [6] is Klebsiella pneumoniae. The assay can be described thus: Antimicrobial activity against Klebsiella pneumoniae isolate 132 transconjugant expressing aac(6')-Ib-cr gene.
In assay [7] the test system is Escherichia coli. In words: Antimicrobial activity against Escherichia coli isolate 48 expressing aac(6')-Ib-cr gene.
For assay [8], the system named is Enterobacter cloacae. The assay can be described thus: Antimicrobial activity against Enterobacter cloacae isolate 153 expressing aac(6')-Ib-cr gene.
In assay [9] the test system is Escherichia coli. In words: Antimicrobial activity against Escherichia coli isolate 17 transconjugant expressing aac(6')-Ib-cr gene.
Assay [10] relates to Enterobacter cloacae. The assay can be described thus: Antimicrobial activity against Enterobacter cloacae isolate 101 expressing aac(6')-Ib-cr gene.
The test system of assay [11] is Klebsiella pneumoniae. In words: Antimicrobial activity against Klebsiella pneumoniae isolate 135 transconjugant expressing aac(6')-Ib-cr gene.
The subject of assay [12] is Klebsiella pneumoniae. In words: Antimicrobial activity against Klebsiella pneumoniae isolate 135 expressing aac(6')-Ib-cr gene.
In assay [13] the test system is Klebsiella pneumoniae. In words: Antimicrobial activity against Klebsiella pneumoniae isolate 132 expressing aac(6')-Ib-cr gene.
Assay [14] relates to Enterobacter cloacae. The assay can be described thus: Antimicrobial activity against Enterobacter cloacae isolate 101 transconjugant expressing aac(6')-Ib-cr gene.
The subject of assay [15] is Klebsiella pneumoniae. In words: Antimicrobial activity against Klebsiella pneumoniae isolate 202 expressing aac(6')-Ib-cr gene.
For assay [16], the system named is Enterobacter cloacae. The assay can be described thus: Antimicrobial activity against Enterobacter cloacae isolate 37 transconjugant expressing aac(6')-Ib-cr gene.
Assay [17] deals with Escherichia coli. The assay can be described thus: Antimicrobial activity against Escherichia coli isolate 48 transconjugant expressing aac(6')-Ib-cr gene.
For assay [18], the system named is Escherichia coli. In words: Ratio of MIC for Escherichia coli isolate 17 transconjugant to MIC for azide-resistant Escherichia coli […].
Assay [19] relates to Escherichia coli. In words: Ratio of MIC for Escherichia coli isolate 48 transconjugant to MIC for azide-resistant Escherichia coli […].

Values after ≈ are worked out from the molar mass of the structure shown.

Broadly, the MIC is the lowest concentration found to suppress growth. For the molecule `CO/N=C(\C(=O)N[C@@H]1C(=O)N2C(C(=O)O)=C(COC(C)=O)CS[C@H]12)c1csc(N)n1` [CEFOTAXIME], the MIC was 256 µg/mL (≈ 562 µM) against Escherichia coli [1]; 0.06 µg/mL (≈ 0.132 µM) in the assay on Escherichia coli [2]; 32 µg/mL (≈ 70.3 µM) against Enterobacter cloacae [3]; 128 µg/mL (≈ 281 µM) in the assay with Enterobacter cloacae [4]; 16 µg/mL (≈ 35.1 µM) in the assay on Klebsiella pneumoniae [5]; over 256 µg/mL against Klebsiella pneumoniae [6]. Further, the MIC was over 256 µg/mL in the assay with Escherichia coli [7]; 256 µg/mL (≈ 562 µM) against Enterobacter cloacae [8]; 256 µg/mL (≈ 562 µM) in the assay on Escherichia coli [9]; 256 µg/mL (≈ 562 µM) against Enterobacter cloacae [10]; 256 µg/mL (≈ 562 µM) against Klebsiella pneumoniae [11]; 256 µg/mL (≈ 562 µM) with Klebsiella pneumoniae [12]. Also, the MIC in the assay with Klebsiella pneumoniae [13] was over 256 µg/mL; against Enterobacter cloacae [14], 32 µg/mL (≈ 70.3 µM); against Klebsiella pneumoniae [15], over 256 µg/mL; against Enterobacter cloacae [16] it was 64 µg/mL (≈ 141 µM); against Escherichia coli [17], over 256 µg/mL.

Turning to `CC(C)(O/N=C(\C(=O)N[C@@H]1C(=O)N2C(C(=O)[O-])=C(C[n+]3ccccc3)CS[C@H]12)c1csc(N)n1)C(=O)O` [CEFTAZIDIME], the MIC worked out at 32 µg/mL (≈ 58.5 µM) with Escherichia coli [1]; 0.25 µg/mL (≈ 0.457 µM) in the assay on Escherichia coli [2]; 1 µg/mL (≈ 1.83 µM) against Enterobacter cloacae [3]; 8 µg/mL (≈ 14.6 µM) in the assay with Enterobacter cloacae [4]; 1 µg/mL (≈ 1.83 µM) in the assay with Klebsiella pneumoniae [5]; 16 µg/mL (≈ 29.3 µM) with Klebsiella pneumoniae [6]. In addition, the MIC against Escherichia coli [7] is over 32 µg/mL; in the assay with Enterobacter cloacae [8], over 32 µg/mL; against Escherichia coli [9], 16 µg/mL (≈ 29.3 µM); against Enterobacter cloacae [10], over 32 µg/mL; against Klebsiella pneumoniae [11], over 32 µg/mL; in the assay with Klebsiella pneumoniae [12], over 32 µg/mL. Moreover, the minimum inhibitory concentration (MIC) is 32 µg/mL (≈ 58.5 µM) in the assay with Klebsiella pneumoniae [13]; 2 µg/mL (≈ 3.66 µM) in the assay on Enterobacter cloacae [14]; over 32 µg/mL in the assay with Klebsiella pneumoniae [15]; 2 µg/mL (≈ 3.66 µM) with Enterobacter cloacae [16]; over 32 µg/mL against Escherichia coli [17].

Consider `O=C(O)c1cn(C2CC2)c2cc(N3CCNCC3)c(F)cc2c1=O` [CIPROFLOXACIN], for which the MIC against Escherichia coli [1] is over 16 µg/mL; against Klebsiella pneumoniae [5] it was 0.03 µg/mL (≈ 0.0905 µM); against Klebsiella pneumoniae [6] it was 0.03 µg/mL (≈ 0.0905 µM); against Escherichia coli [7], over 16 µg/mL; against Klebsiella pneumoniae [11], 1 µg/mL (≈ 3.02 µM); in the assay with Klebsiella pneumoniae [12] it was over 16 µg/mL. For the same molecule, the MIC against Klebsiella pneumoniae [13] is 0.125 µg/mL (≈ 0.377 µM); in the assay with Klebsiella pneumoniae [15], over 16 µg/mL.

Regarding `COc1c(N2C[C@@H]3CCCN[C@@H]3C2)c(F)cc2c(=O)c(C(=O)O)cn(C3CC3)c12` [MOXIFLOXACIN], the MIC against Escherichia coli [1] was over 16 µg/mL; in the assay on Klebsiella pneumoniae [5], 0.06 µg/mL (≈ 0.149 µM); in the assay with Klebsiella pneumoniae [6], 0.06 µg/mL (≈ 0.149 µM); against Klebsiella pneumoniae [11], 1 µg/mL (≈ 2.49 µM); in the assay on Klebsiella pneumoniae [12], over 16 µg/mL; against Klebsiella pneumoniae [13], 0.125 µg/mL (≈ 0.311 µM). Inhibition of growth against Klebsiella pneumoniae [15] (MIC) required 16 µg/mL (≈ 39.9 µM).

For `CCn1cc(C(=O)O)c(=O)c2ccc(C)nc21` [NALIDIXIC ACID], the MIC in the assay on Escherichia coli [1] is over 256 µg/mL; in the assay with Escherichia coli [2], 8 µg/mL (≈ 34.4 µM); in the assay with Enterobacter cloacae [3], 8 µg/mL (≈ 34.4 µM); in the assay with Enterobacter cloacae [4], over 256 µg/mL; against Klebsiella pneumoniae [5], 8 µg/mL (≈ 34.4 µM); with Klebsiella pneumoniae [6] it was 8 µg/mL (≈ 34.4 µM). For the same molecule, the MIC is over 256 µg/mL against Escherichia coli [7]; over 256 µg/mL in the assay with Enterobacter cloacae [8]; 8 µg/mL (≈ 34.4 µM) in the assay on Escherichia coli [9]; over 256 µg/mL in the assay with Enterobacter cloacae [10]; 32 µg/mL (≈ 138 µM) against Klebsiella pneumoniae [11]; over 256 µg/mL in the assay with Klebsiella pneumoniae [12]. Further, the MIC with Klebsiella pneumoniae [13] is 8 µg/mL (≈ 34.4 µM); in the assay with Enterobacter cloacae [14], 8 µg/mL (≈ 34.4 µM); against Klebsiella pneumoniae [15], over 256 µg/mL; against Enterobacter cloacae [16], 8 µg/mL (≈ 34.4 µM); with Escherichia coli [17], 8 µg/mL (≈ 34.4 µM).

In the case of `CCn1cc(C(=O)O)c(=O)c2cc(F)c(N3CCNCC3)cc21` [NORFLOXACIN], the “fold change (FC)” value in the assay with Escherichia coli [18] and with Escherichia coli [19] was 2 throughout. In addition, the MIC is over 16 µg/mL with Escherichia coli [1]; 0.06 µg/mL (≈ 0.188 µM) against Escherichia coli [2]; 0.25 µg/mL (≈ 0.783 µM) against Enterobacter cloacae [3]; over 16 µg/mL in the assay on Enterobacter cloacae [4]; 0.125 µg/mL (≈ 0.391 µM) against Klebsiella pneumoniae [5]; 0.125 µg/mL (≈ 0.391 µM) with Klebsiella pneumoniae [6]. Also, the MIC against Escherichia coli [7] is over 16 µg/mL; with Enterobacter cloacae [8], over 16 µg/mL; in the assay on Escherichia coli [9], 0.25 µg/mL (≈ 0.783 µM); against Enterobacter cloacae [10] it was over 16 µg/mL; in the assay on Klebsiella pneumoniae [11], 8 µg/mL (≈ 25.1 µM); in the assay with Klebsiella pneumoniae [12] it was over 16 µg/mL. Moreover, the MIC in the assay with Klebsiella pneumoniae [13] was 0.5 µg/mL (≈ 1.57 µM); against Enterobacter cloacae [14] it was 0.25 µg/mL (≈ 0.783 µM); in the assay on Klebsiella pneumoniae [15], over 16 µg/mL; in the assay on Enterobacter cloacae [16], 0.25 µg/mL (≈ 0.783 µM); against Escherichia coli [17] it was 0.25 µg/mL (≈ 0.783 µM).

For `NC[C@H]1O[C@H](O[C@H]2[C@H](O)[C@@H](O[C@H]3O[C@H](CO)[C@@H](O)[C@H](N)[C@H]3O)[C@H](N)C[C@@H]2N)[C@H](N)C[C@@H]1O` [TOBRAMYCIN], the MIC was over 16 µg/mL against Escherichia coli [1]; 0.25 µg/mL (≈ 0.535 µM) in the assay on Escherichia coli [2]; over 16 µg/mL against Enterobacter cloacae [3]; over 16 µg/mL against Enterobacter cloacae [4]; over 16 µg/mL in the assay on Klebsiella pneumoniae [5]; 16 µg/mL (≈ 34.2 µM) against Klebsiella pneumoniae [6]. The MIC against Escherichia coli [7] is 16 µg/mL (≈ 34.2 µM); in the assay with Enterobacter cloacae [8] it was over 16 µg/mL; in the assay with Escherichia coli [9] it was 16 µg/mL (≈ 34.2 µM); with Enterobacter cloacae [10], over 16 µg/mL; in the assay on Klebsiella pneumoniae [11], over 16 µg/mL; against Klebsiella pneumoniae [12], over 16 µg/mL. In addition, the MIC was over 16 µg/mL against Klebsiella pneumoniae [13]; 2 µg/mL (≈ 4.28 µM) with Enterobacter cloacae [14]; over 16 µg/mL in the assay on Klebsiella pneumoniae [15]; over 16 µg/mL with Enterobacter cloacae [16]; 8 µg/mL (≈ 17.1 µM) with Escherichia coli [17].

Turning to GENTAMICIN, the MIC was over 32 µg/mL in the assay on Escherichia coli [1]; 0.25 µg/mL in the assay with Escherichia coli [2]; over 32 µg/mL in the assay on Enterobacter cloacae [3]; over 32 µg/mL in the assay with Enterobacter cloacae [4]; over 32 µg/mL with Klebsiella pneumoniae [5]; 32 µg/mL against Klebsiella pneumoniae [6]. The MIC in the assay on Escherichia coli [7] is 0.25 µg/mL; in the assay on Enterobacter cloacae [8], over 32 µg/mL; against Escherichia coli [9] it was 32 µg/mL; with Enterobacter cloacae [10], over 32 µg/mL; against Klebsiella pneumoniae [11] it was over 32 µg/mL; in the assay with Klebsiella pneumoniae [12], over 32 µg/mL. For the same molecule, the minimum inhibitory concentration (MIC) in the assay on Klebsiella pneumoniae [13] is over 32 µg/mL; in the assay with Enterobacter cloacae [14], 0.25 µg/mL; against Klebsiella pneumoniae [15] it was over 32 µg/mL; in the assay with Enterobacter cloacae [16], over 32 µg/mL; with Escherichia coli [17] it was 0.25 µg/mL.

The record behind these values is ChEMBL document CHEMBL1649439, “Prevalence of aac(6')-Ib-cr encoding a ciprofloxacin-modifying enzyme among Enterobacteriaceae blood isolates in Korea” (2009).
